Experimental data as given in US20240199546A1, “INHIBITORS OF SOLUTE CARRIER FAMILY 6A MEMBER 19 (SLC6A19) AND METHODS OF USE THEREOF” (Maze Therapeutics, Inc., priority 2022, published 2024).

Target: T1, human SLC6A19 and TMEM27 (Homo sapiens, UniProt Q695T7)
T1 construct: expressed in transfected cells
T1 sequence (Q695T7 1-634): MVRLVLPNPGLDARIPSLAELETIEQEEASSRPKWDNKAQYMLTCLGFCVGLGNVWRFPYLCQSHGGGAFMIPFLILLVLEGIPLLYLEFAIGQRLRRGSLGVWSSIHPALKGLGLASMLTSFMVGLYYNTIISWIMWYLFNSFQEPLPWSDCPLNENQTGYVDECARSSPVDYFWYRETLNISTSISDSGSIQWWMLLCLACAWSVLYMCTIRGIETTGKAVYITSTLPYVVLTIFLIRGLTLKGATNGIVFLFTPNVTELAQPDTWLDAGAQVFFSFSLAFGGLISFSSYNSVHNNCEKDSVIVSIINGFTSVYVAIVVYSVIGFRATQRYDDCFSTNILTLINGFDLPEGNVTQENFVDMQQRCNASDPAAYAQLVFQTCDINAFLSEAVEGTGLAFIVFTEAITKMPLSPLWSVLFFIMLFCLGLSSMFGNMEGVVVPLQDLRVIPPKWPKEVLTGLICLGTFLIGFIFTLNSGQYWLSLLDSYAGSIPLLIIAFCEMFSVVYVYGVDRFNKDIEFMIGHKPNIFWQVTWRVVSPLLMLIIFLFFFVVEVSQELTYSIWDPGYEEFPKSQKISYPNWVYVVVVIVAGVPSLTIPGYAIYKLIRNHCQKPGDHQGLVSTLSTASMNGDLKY
T1 sequence (Q9HBJ8 15-222 partner): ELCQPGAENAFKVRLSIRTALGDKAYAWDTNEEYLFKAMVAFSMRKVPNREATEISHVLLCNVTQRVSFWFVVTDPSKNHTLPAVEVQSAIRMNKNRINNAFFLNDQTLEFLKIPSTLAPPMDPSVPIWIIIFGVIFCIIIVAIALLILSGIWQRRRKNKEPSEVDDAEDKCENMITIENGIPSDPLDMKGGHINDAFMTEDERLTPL
Assay: Radiolabelled (3H) leucine uptake in CHO cells with doxycycline-inducible expression of human SLC6A19 and TMEM27 (Example B-1)
Format: cell-based
Conditions: CHO cells with doxycycline-inducible expression of human SLC6A19 and TMEM27, read-out: SLC6A19_Radioligand Uptake Assay IC50
Summary of the method: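 CHO cells were induced with doxycycline for 18 h at 37 °C, washed in HBSS, then exposed to compounds for 1 h: 8-point, 3-fold dilutions in duplicate, 0.5% DMSO final. Uptake measured by scintillation counting after 2 h shaking. Activity normalized with positive control as 0% and DMSO as 100%.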

| Compound | IC50 [nM] |
| --- | --- |
| Cc1cc(COc2cc3[nH]c(CNC(=O)N4CCCC4)cc3cc2F)on1 [Compound 118, N-((5-fluoro-6-((3-methylisoxazol-5-yl)methoxy)-1H-indol-2-yl)methyl)pyrrolidine-1-carboxamide] | 1110 |
| Cc1cc(COc2cc3[nH]c(CNC(=O)[C@@H](O)CF)cc3cc2Cl)on1 [Compound 247, (R)-N-((5-chloro-6-((3-methylisoxazol-5-yl)methoxy)-1H-indol-2-yl)methyl)-3-fluoro-2-hydroxypropanamide] | 770 |
| O=C(NCc1cc2cc(F)c(OCc3cscn3)cc2[nH]1)C1(CO)CC1 [Compound 255, N-((5-fluoro-6-(thiazol-4-ylmethoxy)-1H-indol-2-yl)methyl)-1-(hydroxymethyl)cyclopropane-1-carboxamide] | 1360 |
| CC1(C(=O)NCc2cc3c(F)c(F)c(OCc4cscn4)cc3[nH]2)CC1 [Compound 526, N-((4,5-difluoro-6-(thiazol-4-ylmethoxy)-1H-indol-2-yl)methyl)-1-methylcyclopropane-1-carboxamide] | 156 |
| CN1CCC1C(=O)NCc1cc2cc(Cl)c(OCc3cscn3)cc2[nH]1 (racemic) [Compound 669, N-((5-chloro-6-(thiazol-4-ylmethoxy)-1H-indol-2-yl)methyl)-1-methylazetidine-2-carboxamide] | 3880 |
| O=C(NCc1cc2cc(OC(F)(F)F)c(CCc3ccon3)cc2[nH]1)N1CCCC1 [Compound 598, N-((6-(2-(isoxazol-3-yl)ethyl)-5-(trifluoromethoxy)-1H-indol-2-yl)methyl)pyrrolidine-1-carboxamide] | 358 |
| O=C(NCc1cc2cc(F)c(CCc3cscn3)cc2[nH]1)N1CCCC1 [Compound 601, N-((5-fluoro-6-(2-(thiazol-4-yl)ethyl)-1H-indol-2-yl)methyl)pyrrolidine-1-carboxamide] | 174 |
| CC1(C(=O)NCc2cc3cc(-c4cnco4)c(OCc4cscn4)cc3[nH]2)CC1 [Compound 661, 1-methyl-N-((5-(oxazol-5-yl)-6-(thiazol-4-ylmethoxy)-1H-indol-2-yl)methyl)cyclopropane-1-carboxamide] | 1000 |
| CN(C)CC(=O)NCc1cc2cc(Cl)c(OCc3cscn3)cc2[nH]1 [Compound 580, N-((5-chloro-6-(thiazol-4-ylmethoxy)-1H-indol-2-yl)methyl)-2-(dimethylamino)acetamide] | 620 |
| CC1CCCN1C(=O)NCc1cc2cc(Cl)c(OCc3ccon3)cc2[nH]1 (stereo not shown) [Compound 86, N-((5-chloro-6-(isoxazol-3-ylmethoxy)-1H-indol-2-yl)methyl)-2-methylpyrrolidine-1-carboxamide] | 490 |
| C[C@@H]1CCCN1C(=O)NCc1cc2cc(F)c(OCc3ccon3)cc2[nH]1 [Compound 383, (R)-N-((5-fluoro-6-(isoxazol-3-ylmethoxy)-1H-indol-2-yl)methyl)-2-methylpyrrolidine-1-carboxamide] | 178 |
| O=C(NCc1cc2cc(F)c(OCc3ccon3)cc2[nH]1)C1(C(F)(F)F)CC1 [Compound 139, N-((5-fluoro-6-(isoxazol-3-ylmethoxy)-1H-indol-2-yl)methyl)-1-(trifluoromethyl)cyclopropane-1-carboxamide] | 310 |
| [2H]C([2H])([2H])C(=O)NCc1cc2cc(F)c(OCc3cscn3)cc2[nH]1 [Compound 566, N-((5-fluoro-6-(thiazol-4-ylmethoxy)-1H-indol-2-yl)methyl)acetamide-2,2,2-d3] | 146 |
| CC1(C(=O)NCc2cc3cc(OC(F)F)c(OCc4cscn4)cc3[nH]2)CC1 [Compound 604, N-((5-(difluoromethoxy)-6-(thiazol-4-ylmethoxy)-1H-indol-2-yl)methyl)-1-methylcyclopropane-1-carboxamide] | 391 |
| O=C(NCc1cc2cc(Cl)c(OCc3cscn3)cc2[nH]1)C1COC1 [Compound 261, N-((5-chloro-6-(thiazol-4-ylmethoxy)-1H-indol-2-yl)methyl)oxetane-3-carboxamide] | 105 |
| CC(C)C(=O)NCc1cc2cc(F)c(OCc3ccon3)cc2[nH]1 [Compound 138, N-((5-fluoro-6-(isoxazol-3-ylmethoxy)-1H-indol-2-yl)methyl)isobutyramide] | 353 |
| Cc1ccc(COc2cc3[nH]c(CNC(=O)C4(C)CC4)cc3cc2Cl)nc1 [Compound 21, N-((5-chloro-6-((5-methylpyridin-2-yl)methoxy)-1H-indol-2-yl)methyl)-1-methylcyclopropane-1-carboxamide] | 532 |
| COc1cc2cc(CNC(=O)C3(C)CC3)[nH]c2cc1CCn1ccnn1 [Compound 588, N-((6-(2-(1H-1,2,3-triazol-1-yl)ethyl)-5-methoxy-1H-indol-2-yl)methyl)-1-methylcyclopropane-1-carboxamide] | 3670 |
| CC1(C(=O)NCc2cc3cc(OC(F)(F)F)c(OCc4cocn4)cc3[nH]2)CC1 [Compound 439, 1-methyl-N-((6-(oxazol-4-ylmethoxy)-5-(trifluoromethoxy)-1H-indol-2-yl)methyl)cyclopropane-1-carboxamide] | 327 |
| COc1ccc(COc2cc3[nH]c(CNC(=O)C4(C)CC4)cc3cc2Cl)nn1 [Compound 337, N-((5-chloro-6-((6-methoxypyridazin-3-yl)methoxy)-1H-indol-2-yl)methyl)-1-methylcyclopropane-1-carboxamide] | 1190 |

Results, then the compound that gave them:

| IC50 [nM] | Compound |
| --- | --- |
| 78.9 | COCC(=O)NCc1cc2cc(Cl)c(OCc3cc(C)no3)cc2[nH]1 [Compound 272, N-((5-chloro-6-((3-methylisoxazol-5-yl)methoxy)-1H-indol-2-yl)methyl)-2-methoxyacetamide] |
| 175 | Cc1cc(COc2cc3[nH]c(CNC(=O)C4COC4)cc3cc2Cl)on1 [Compound 274, N-((5-chloro-6-((3-methylisoxazol-5-yl)methoxy)-1H-indol-2-yl)methyl)oxetane-3-carboxamide] |
| 187 | Cc1cc(COc2cc3[nH]c(CNC(=O)CC4CC4)cc3cc2Cl)on1 [Compound 449, N-((5-chloro-6-((3-methylisoxazol-5-yl)methoxy)-1H-indol-2-yl)methyl)-2-cyclopropylacetamide] |
| 1150 | Cc1cc(COc2cc3[nH]c(CNC(=O)[C@@H]4CC(F)(F)CN4C)cc3cc2Cl)on1 [Compound 668, (S)-N-((5-chloro-6-((3-methylisoxazol-5-yl)methoxy)-1H-indol-2-yl)methyl)-4,4-difluoro-1-methylpyrrolidine-2-carboxamide] |
| 579 | Cc1cc(COc2cc3[nH]c(CNC(=O)[C@@]4(C)CCCO4)cc3cc2Cl)on1 [Compound 307, (R)-N-((5-chloro-6-((3-methylisoxazol-5-yl)methoxy)-1H-indol-2-yl)methyl)-2-methyltetrahydrofuran-2-carboxamide] |
| > 5550 | Cc1cc(COc2cc3[nH]c(CNC(=O)[C@H]4CCCN4C)cc3cc2Cl)on1 [Compound 578, (R)-N-((5-chloro-6-((3-methylisoxazol-5-yl)methoxy)-1H-indol-2-yl)methyl)-1-methylpyrrolidine-2-carboxamide] |
| 1020 | Cc1cc(COc2cc3[nH]c(CNC(=O)[C@H]4C[C@@H]5CC[C@H]4O5)cc3cc2Cl)on1 (racemic) [Compound 297, (1R,2S,4S)-N-((5-chloro-6-((3-methylisoxazol-5-yl)methoxy)-1H-indol-2-yl)methyl)-7-oxabicyclo[2.2.1]heptane-2-carboxamide and (1S,2R,4R)-N-((5-chloro-6-((3-methylisoxazol-5-yl)methoxy)-1H-indol-2-yl)methyl)-7-oxabicyclo[2.2.1]heptane-2-carboxamide] |
| 125 | CCNC(=O)NCc1cc2cc(Cl)c(OCc3cc(C)no3)cc2[nH]1 [Compound 369, 1-((5-chloro-6-((3-methylisoxazol-5-yl)methoxy)-1H-indol-2-yl)methyl)-3-ethylurea] |
| 123 | Cc1cc(COc2cc3[nH]c(CNC(=O)[C@H]4C[C@H]4F)cc3cc2Cl)on1 [Compound 539, (1R,2R)-N-((5-chloro-6-((3-methylisoxazol-5-yl)methoxy)-1H-indol-2-yl)methyl)-2-fluorocyclopropane-1-carboxamide] |
| 118 | Cc1cc(COc2cc3[nH]c(CNC(=O)CC(F)F)cc3cc2Cl)on1 [Compound 519, N-((5-chloro-6-((3-methylisoxazol-5-yl)methoxy)-1H-indol-2-yl)methyl)-3,3-difluoropropanamide] |
| 327 | Cc1cc(COc2cc3[nH]c(CNC(=O)C45CC(CO4)C5)cc3cc2Cl)on1 [Compound 301, N-((5-chloro-6-((3-methylisoxazol-5-yl)methoxy)-1H-indol-2-yl)methyl)-2-oxabicyclo[2.1.1]hexane-1-carboxamide] |
